Measurements: patent US5284870A, “Aldose reductase inhibitor” (Shionogi Seiyaku Kabushiki Kaisha, priority 1992, dated 1994)

Target: T1, aldose reductase (Rattus norvegicus, UniProt P07943)
T1 construct: Lenses were removed from 20 eyeballs of rats and homogenized in 4 ml of 5 mM mercaptethanol; from tissue; host or cells: rat lens, 10,000 rpm supernatant of homogenate
Test: Aldose reductase-inhibiting activity (absorbance change at 340 nm, homogenate of rat lenses as enzyme source, glyceroaldehyde substrate, NADPH coenzyme)
Format: biochemical
Conditions: rat lens homogenate, 10 mM D,L-glyceroaldehyde, 0.4M Li2SO4, initial one minute
Protocol: The change in absorbance at 340 nm for initial one minute was measured, and the inhibiting activity was determined.
Lenses were removed from 20 eyeballs of rats and homogenized in 4 ml of 5 mM mercaptethanol using Glass-Teflon Homogenate. The obtained homogenate was centrifuged at 4° C. and 10,000 rpm for 20 minutes, and resulting supernatant was used as the enzyme source.

SMILES	IC50 (mass concentration)	IC50 (molar value in parentheses)	Ic50 (mass concentration)
O=C(O)CCC1(O)OC2=CC(=O)c3c(O)cc(O)cc3C2=C1c1ccc(O)cc1 (stereo not drawn) [RF-3192 A]	8.33 nM	8.2 nM	
O=C(O)CCC1(O)OC2=CC(=O)c3c(O)cc(O)cc3C2=C1c1ccccc1 (stereo not drawn) [RF-3192 B]		4.2 nM	1.6 ng/mL
O=C1C=C2OC3(O)CC(=O)c4c(O)cc(O)cc4C3=C2c2cc(O)cc(O)c21 (stereo not drawn) [RF-3192 C]		340 nM	130 ng/mL
